Data from ChEMBL document CHEMBL1133821, “Synthesis and antiinflammatory, analgesic activity of 3,3'-(1,2-ethanediyl)-bis[2-aryl-4-thiazolidinone] chiral compounds. Part 10” (Bioorg Med Chem Lett, 2001).

What was measured:
Rattus norvegicus [1] = test: Animals with Ulcers in Carrageenan-induced paw edema test at a dose of 100 mg/kg perorally in rats; format: functional; conditions: route oral
Rattus norvegicus [2] = test: Animals with Hyperemia in Carrageenan-induced paw edema test at a dose of 100 mg/kg perorally in rats; format: functional; conditions: route oral
Rattus norvegicus [3] = test: Reaction time in Hot plate test at a dose of 100 mg/kg perorally in rats after 180 min; format: functional; conditions: route oral
Rattus norvegicus [4] = test: Analgesic activity was determined using acetic acid writing test at a dose of 100 mg/kg perorally in rats.(p<0.05); format: functional; conditions: route oral
Rattus norvegicus [5] = test: Reaction time in Hot plate test at a dose of 100 mg/kg perorally in rats after 120 min; format: functional; conditions: route oral
[6] = Peroral dose causing 50% death of the mice population; format: ADME, organism-based; conditions: mouse, in vivo, po
[7] = Minimum concentration which causes 50% of the Artemia salina larvae to lose mobility; format: ADME, organism-based; conditions: in vivo
Rattus norvegicus [8] = test: Number of writhings in Acetic acid Writhing test at a dose of 100 mg/kg perorally in rats; format: functional; conditions: route oral
Rattus norvegicus [9] = test: Reaction time in Hot plate test at a dose of 100 mg/kg perorally in rats after 60 min; format: functional; conditions: route oral
Rattus norvegicus [10] = test: Percent Edema variation in Carrageenan-induced paw edema test at a dose of 100 mg/kg perorally in rats after 180 min (p<0.001); format: functional; conditions: route oral
Rattus norvegicus [11] = test: Percent Edema variation in Carrageenan-induced paw edema test at a dose of 100 mg/kg perorally in rats after 120 min; format: functional; conditions: route oral
Rattus norvegicus [12] = test: Percent Edema variation in Carrageenan-induced paw edema test at a dose of 100 mg/kg perorally in rats after 60 min; format: functional; conditions: route oral
Rattus norvegicus [13] = test: Percent Edema variation in Carrageenan-induced paw edema test at a dose of 100 mg/kg perorally in rats after 180 min; format: functional; conditions: route oral
Rattus norvegicus [14] = test: Analgesic activity was determined using acetic acid writing test at a dose of 100 mg/kg perorally in rats.; format: functional; conditions: route oral
Rattus norvegicus [15] = test: Percent Edema variation in Carrageenan-induced paw edema test at a dose of 100 mg/kg perorally in rats after 60 min (p<0.01); format: functional; conditions: route oral
Rattus norvegicus [16] = test: Percent Edema variation in Carrageenan-induced paw edema test at a dose of 100 mg/kg perorally in rats after 180 min (p<0.01); format: functional; conditions: route oral
Rattus norvegicus [17] = test: Reaction time in Hot plate test at a dose of 100 mg/kg perorally in rats after 120 min (p<0.05); format: functional; conditions: route oral
Rattus norvegicus [18] = test: Reaction time in Hot plate test at a dose of 100 mg/kg perorally in rats after 180 min (p<0.05); format: functional; conditions: route oral
Rattus norvegicus [19] = test: Reaction time in Hot plate test at a dose of 100 mg/kg perorally in rats after 60 min (p<0.05); format: functional; conditions: route oral
Rattus norvegicus [20] = test: Percent Edema variation in Carrageenan-induced paw edema test at a dose of 100 mg/kg perorally in rats after 120 min (p<0.05); format: functional; conditions: route oral
Rattus norvegicus [21] = test: Percent Edema variation in Carrageenan-induced paw edema test at a dose of 100 mg/kg perorally in rats after 120 min (p<0.001); format: functional; conditions: route oral
[22] = Animals with Hyperemia in Carrageenan-induced paw edema test at a dose of 50 mg/kg perorally in rats; format: functional; conditions: route oral
Rattus norvegicus [23] = test: Reaction time in Hot plate test at a dose of 100 mg/kg perorally in rats after 180 min (p<0.001); format: functional; conditions: route oral
Rattus norvegicus [24] = test: Reaction time in Hot plate test at a dose of 100 mg/kg perorally in rats after 60 min (p<0.01); format: functional; conditions: route oral
Rattus norvegicus [25] = test: Percent Edema variation in Carrageenan-induced paw edema test at a dose of 50 mg/kg perorally in rats after 60 min (p<0.01); format: functional; conditions: route oral
Rattus norvegicus [26] = test: Analgesic activity was determined using acetic acid writing test at a dose of 100 mg/kg perorally in rats. (p<0.01); format: functional; conditions: route oral
Rattus norvegicus [27] = test: Percent Edema variation in Carrageenan-induced paw edema test at a dose of 50 mg/kg perorally in rats after 120 min (p<0.01); format: functional; conditions: route oral
[28] = Animals with Ulcers in Carrageenan-induced paw edema test at a dose of 25 mg/kg perorally in rats; format: functional; conditions: route oral
Rattus norvegicus [29] = test: Percent Edema variation in Carrageenan-induced paw edema test at a dose of 25 mg/kg perorally in rats after 60 min (p<0.01); format: functional; conditions: route oral
[30] = Animals with Ulcers in Carrageenan-induced paw edema test at a dose of 50 mg/kg perorally in rats; format: functional; conditions: route oral
Rattus norvegicus [31] = test: Reaction time in Hot plate test at a dose of 100 mg/kg perorally in rats after 120 min (p<0.01); format: functional; conditions: route oral
Rattus norvegicus [32] = test: Percent Edema variation in Carrageenan-induced paw edema test at a dose of 50 mg/kg perorally in rats after 180 min (p<0.01); format: functional; conditions: route oral
[33] = Animals with Hyperemia in Carrageenan-induced paw edema test at a dose of 25 mg/kg perorally in rats; format: functional; conditions: route oral
Rattus norvegicus [34] = test: Percent Edema variation in Carrageenan-induced paw edema test at a dose of 25 mg/kg perorally in rats after 120 min (p<0.01); format: functional; conditions: route oral
Rattus norvegicus [35] = test: Percent Edema variation in Carrageenan-induced paw edema test at a dose of 25 mg/kg perorally in rats after 180 min (p<0.01); format: functional; conditions: route oral

For `COc1ccc(C2SCC(=O)N2CCN2C(=O)CSC2c2ccc(OC)cc2)cc1` (centres undefined), the Animals (Rattus norvegicus [1]) was 0%, the Animals (Rattus norvegicus [2]) was 20% and the Reaction time (Rattus norvegicus [3]) was 13.9 s. For the same compound, the inhibition in vivo at 100 mg/kg (Rattus norvegicus [4]) was 22%, the Reaction time (Rattus norvegicus [5]) was 15.1 s and the LD50 [6] was greater than 1000 mg/kg. The LC50 [7] was greater than 1000 µg/mL, the No. of writhings (Rattus norvegicus [8]) was 15.8 and the Reaction time (Rattus norvegicus [9]) was 11.2 s. It also gave an Edema variation (Rattus norvegicus [10]) of -64.98%, an Edema variation (Rattus norvegicus [11]) of -26.62% and an Edema variation (Rattus norvegicus [12]) of 39.52%.
`COc1cccc(C2SCC(=O)N2CCN2C(=O)CSC2c2cccc(OC)c2)c1` (centres undefined) gave an Animals (Rattus norvegicus [1]) of 0%, an Animals (Rattus norvegicus [2]) of 20% and a Reaction time (Rattus norvegicus [3]) of 12.9 s. For the same compound, the Edema variation (Rattus norvegicus [13]) was -18.31%, the Reaction time (Rattus norvegicus [5]) was 13 s and the LD50 [6] was greater than 1000 mg/kg. The LC50 [7] was greater than 1000 µg/mL, the inhibition in vivo at 100 mg/kg (Rattus norvegicus [14]) was 4% and the Edema variation (Rattus norvegicus [15]) was -34.4%. The No. of writhings (Rattus norvegicus [8]) was 19.5, the Reaction time (Rattus norvegicus [9]) was 13.4 s and the Edema variation (Rattus norvegicus [11]) was -26.3%.
In the case of `COc1ccc(C2SCC(=O)N2CCN2C(=O)CSC2c2ccc(OC)c(F)c2)cc1F` (centres undefined), the Animals (Rattus norvegicus [1]) is reported as 0%, the Animals (Rattus norvegicus [2]) is reported as 20% and the Reaction time (Rattus norvegicus [3]) is reported as 13.5 s. It also gave an Edema variation (Rattus norvegicus [16]) of -38.94%, an LD50 [6] greater than 1000 mg/kg and an LC50 [7] greater than 1000 µg/mL. The inhibition in vivo at 100 mg/kg (Rattus norvegicus [14]) was 20%, the No. of writhings (Rattus norvegicus [8]) was 16.4 and the Reaction time (Rattus norvegicus [9]) was 13.4 s. The Reaction time (Rattus norvegicus [17]) was 16.8 s, the Edema variation (Rattus norvegicus [11]) was -23.83% and the Edema variation (Rattus norvegicus [12]) was 8.6%.
In the case of `O=C1CSC(c2ccc(Cl)c(Cl)c2)N1CCN1C(=O)CSC1c1ccc(Cl)c(Cl)c1` (centres undefined), the Animals (Rattus norvegicus [1]) is reported as 0%, the Reaction time (Rattus norvegicus [18]) is reported as 19.8 s and the Animals (Rattus norvegicus [2]) is reported as 40%. For the same compound, the inhibition in vivo at 100 mg/kg (Rattus norvegicus [4]) was 24%, the Edema variation (Rattus norvegicus [13]) was -27.48% and the Reaction time (Rattus norvegicus [19]) was 20 s. It also gave an LD50 [6] greater than 1000 mg/kg, an LC50 [7] greater than 1000 µg/mL and a No. of writhings (Rattus norvegicus [8]) of 15.2. It also gave an Edema variation (Rattus norvegicus [20]) of -31.41%, a Reaction time (Rattus norvegicus [17]) of 18.4 s and an Edema variation (Rattus norvegicus [12]) of 14.04%.
Work on `COc1ccc(OC)c([C@H]2SCC(=O)N2CCN2C(=O)CS[C@H]2c2cc(OC)ccc2OC)c1` yielded an Animals (Rattus norvegicus [1]) of 0%, an Animals (Rattus norvegicus [2]) of 40% and an Edema variation (Rattus norvegicus [16]) of -39.06%. It also gave an LD50 [6] greater than 1000 mg/kg, an LC50 [7] greater than 1000 µg/mL and an Edema variation (Rattus norvegicus [11]) of -13.5%. The Edema variation (Rattus norvegicus [12]) was -12.48%.
`Cc1cccc(C2SCC(=O)N2CCN2C(=O)CSC2c2cccc(C)c2)c1` (centres undefined) gave an Animals (Rattus norvegicus [1]) of 0%, an Animals (Rattus norvegicus [2]) of 20% and an Edema variation (Rattus norvegicus [13]) of -23.6%. For the same compound, the LD50 [6] was greater than 1000 mg/kg, the LC50 [7] was greater than 1000 µg/mL and the Edema variation (Rattus norvegicus [11]) was -0.13%. The Edema variation (Rattus norvegicus [12]) was 43.41%.
For `COc1ccc([C@H]2SCC(=O)N2CCN2C(=O)CS[C@H]2c2ccc(OC)c(OC)c2)cc1OC`, the Animals (Rattus norvegicus [1]) was 0%, the Edema variation (Rattus norvegicus [21]) was -62.33% and the Animals (Rattus norvegicus [2]) was 20%. It also gave an Edema variation (Rattus norvegicus [16]) of -58.01%, an Animals [22] of 20% and a Reaction time (Rattus norvegicus [23]) of 36.4 s. For the same compound, the Reaction time (Rattus norvegicus [24]) was 26.6 s, the Edema variation (Rattus norvegicus [25]) was -53.62% and the inhibition in vivo at 100 mg/kg (Rattus norvegicus [26]) was 51%. The LD50 [6] was greater than 1000 mg/kg, the Edema variation (Rattus norvegicus [27]) was -59.49% and the Animals [28] was 0%. It also gave an Edema variation (Rattus norvegicus [29]) of -38.33%, an LC50 [7] greater than 1000 µg/mL and an Animals [30] of 0%. It also gave a Reaction time (Rattus norvegicus [31]) of 26.8 s, an Edema variation (Rattus norvegicus [15]) of -58.28% and an Edema variation (Rattus norvegicus [32]) of -44.26%. For the same compound, the No. of writhings (Rattus norvegicus [8]) was 10, the Animals [33] was 20% and the Edema variation (Rattus norvegicus [34]) was -53.28%. For the same compound, the Edema variation (Rattus norvegicus [35]) was -40.09%.
